Data published in the supplement of paper PMC10307832.

Assays:
Assay in all cases: relative viability (nuclei count vs DMSO), 5 days (fraction); higher = more cells survive
A-427 = test system: A-427
Summary of the method: (§1)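 Values are medians from duplicate plates. Each reflects relative viability, defined as the nuclei count of treated wells over that of vehicle wells. Lung cancer cell lines in 1536-well plates were pin-tool dosed one day after seeding with one drug alone or with a fixed anchor-drug dose plus five library-drug doses (not always all listed) in √10 steps, then fixed, stained and imaged at 4× after 5 days.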

CAL-12T = test system: CAL-12T
Summary of the method: as §1

COR-L 105 = test system: COR-L 105
Summary of the method: as §1

EMC-BAC-2 = test system: EMC-BAC-2
Summary of the method: as §1

HARA = test system: HARA
Summary of the method: as §1

HCC-366 = test system: HCC-366
Summary of the method: as §1

HCC-827 = test system: HCC-827
Summary of the method: as §1

HOP-62 = test system: HOP-62
Summary of the method: as §1

LCLC-103H = test system: LCLC-103H
Summary of the method: as §1

NCI-H1355 = test system: NCI-H1355
Summary of the method: as §1

NCI-H1395 = test system: NCI-H1395
Summary of the method: as §1

NCI-H1437 = test system: NCI-H1437
Summary of the method: as §1

NCI-H1755 = test system: NCI-H1755
Summary of the method: as §1

NCI-H1792 = test system: NCI-H1792
Summary of the method: as §1

NCI-H1915 = test system: NCI-H1915
Summary of the method: as §1

NCI-H1975 = test system: NCI-H1975
Summary of the method: as §1

NCI-H2009 = test system: NCI-H2009
Summary of the method: as §1

NCI-H2228 = test system: NCI-H2228
Summary of the method: as §1

NCI-H23 = test system: NCI-H23
Summary of the method: as §1

NCI-H460 = test system: NCI-H460
Summary of the method: as §1

NCI-H522 = test system: NCI-H522
Summary of the method: as §1

NCI-H727 = test system: NCI-H727
Summary of the method: as §1

SK-LU-1 = test system: SK-LU-1
Summary of the method: as §1

SW 1573 = test system: SW 1573
Summary of the method: as §1

C[C@@H]1CN(CC(=O)Nc2ccc3c(c2)Cc2cccc(-c4cc(=O)cc(N5CCOCC5)o4)c2S3)C[C@H](C)O1 + CC(=O)Nc1cccc(-n2c(=O)n(C3CC3)c(=O)c3c(Nc4ccc(I)cc4F)n(C)c(=O)c(C)c32)c1 [Trametinib] (partner 0.02 µM)
relative viability (A-427; first compound 0.04 µM): 0.682 | relative viability (A-427; first compound 0.1265 µM): 0.755 | relative viability (A-427; first compound 0.4 µM): 0.678 | relative viability (A-427; first compound 4 µM): 0.583 | relative viability (CAL-12T; first compound 0.04 µM): 0.309 | relative viability (CAL-12T; first compound 0.1265 µM): 0.306 | relative viability (CAL-12T; first compound 0.4 µM): 0.304 | relative viability (CAL-12T; first compound 4 µM): 0.205 | relative viability (COR-L 105; first compound 0.04 µM): 0.458 | relative viability (COR-L 105; first compound 0.1265 µM): 0.412 | relative viability (COR-L 105; first compound 0.4 µM): 0.416 | relative viability (COR-L 105; first compound 4 µM): 0.428 | relative viability (EMC-BAC-2; first compound 0.04 µM): 0.891 | relative viability (EMC-BAC-2; first compound 0.1265 µM): 0.892 | relative viability (EMC-BAC-2; first compound 0.4 µM): 0.782 | relative viability (EMC-BAC-2; first compound 4 µM): 0.688 | relative viability (HARA; first compound 0.04 µM): 0.785 | relative viability (HARA; first compound 0.1265 µM): 0.654 | relative viability (HARA; first compound 0.4 µM): 0.602 | relative viability (HARA; first compound 4 µM): 0.406 | relative viability (HCC-366; first compound 0.04 µM): 0.43 | relative viability (HCC-366; first compound 0.1265 µM): 0.3 | relative viability (HCC-366; first compound 0.4 µM): 0.244 | relative viability (HCC-366; first compound 4 µM): 0.181 | relative viability (HCC-827; first compound 0.04 µM): 0.541 | relative viability (HCC-827; first compound 0.1265 µM): 0.51 | relative viability (HCC-827; first compound 0.4 µM): 0.491 | relative viability (HCC-827; first compound 4 µM): 0.513 | relative viability (HOP-62; first compound 0.04 µM): 0.4 | relative viability (HOP-62; first compound 0.1265 µM): 0.374 | relative viability (HOP-62; first compound 0.4 µM): 0.297 | relative viability (HOP-62; first compound 4 µM): 0.313 | relative viability (LCLC-103H; first compound 0.04 µM): 0.668 | relative viability (LCLC-103H; first compound 0.1265 µM): 0.629 | relative viability (LCLC-103H; first compound 0.4 µM): 0.68 | relative viability (LCLC-103H; first compound 4 µM): 0.693 | relative viability (NCI-H1355; first compound 0.04 µM): 0.452 | relative viability (NCI-H1355; first compound 0.1265 µM): 0.405 | relative viability (NCI-H1355; first compound 0.4 µM): 0.383 | relative viability (NCI-H1355; first compound 4 µM): 0.401 | relative viability (NCI-H1395; first compound 0.1265 µM): 1.11 | relative viability (NCI-H1395; first compound 0.4 µM): 0.824 | relative viability (NCI-H1395; first compound 4 µM): 0.97 | relative viability (NCI-H1437; first compound 0.04 µM): 0.47 | relative viability (NCI-H1437; first compound 0.1265 µM): 0.467 | relative viability (NCI-H1437; first compound 0.4 µM): 0.506 | relative viability (NCI-H1437; first compound 4 µM): 0.369 | relative viability (NCI-H1755; first compound 0.04 µM): 0.779 | relative viability (NCI-H1755; first compound 0.1265 µM): 0.737 | relative viability (NCI-H1755; first compound 0.4 µM): 0.716 | relative viability (NCI-H1755; first compound 4 µM): 0.663 | relative viability (NCI-H1792; first compound 0.04 µM): 0.422 | relative viability (NCI-H1792; first compound 0.1265 µM): 0.444 | relative viability (NCI-H1792; first compound 0.4 µM): 0.295 | relative viability (NCI-H1792; first compound 4 µM): 0.385 | relative viability (NCI-H1915; first compound 0.04 µM): 0.299 | relative viability (NCI-H1915; first compound 0.1265 µM): 0.291 | relative viability (NCI-H1915; first compound 0.4 µM): 0.284 | relative viability (NCI-H1915; first compound 4 µM): 0.294 | relative viability (NCI-H1975; first compound 0.04 µM): 0.382 | relative viability (NCI-H1975; first compound 0.1265 µM): 0.377 | relative viability (NCI-H1975; first compound 0.4 µM): 0.37 | relative viability (NCI-H1975; first compound 4 µM): 0.33 | relative viability (NCI-H2009; first compound 0.04 µM): 0.259 | relative viability (NCI-H2009; first compound 0.1265 µM): 0.261 | relative viability (NCI-H2009; first compound 0.4 µM): 0.22 | relative viability (NCI-H2009; first compound 4 µM): 0.197 | relative viability (NCI-H2228; first compound 0.04 µM): 0.575 | relative viability (NCI-H2228; first compound 0.1265 µM): 0.547 | relative viability (NCI-H2228; first compound 0.4 µM): 0.536 | relative viability (NCI-H2228; first compound 4 µM): 0.421 | relative viability (NCI-H23; first compound 0.04 µM): 0.356 | relative viability (NCI-H23; first compound 0.1265 µM): 0.348 | relative viability (NCI-H23; first compound 0.4 µM): 0.336 | relative viability (NCI-H23; first compound 4 µM): 0.286 | relative viability (NCI-H460; first compound 0.04 µM): 0.155 | relative viability (NCI-H460; first compound 0.1265 µM): 0.131 | relative viability (NCI-H460; first compound 0.4 µM): 0.13 | relative viability (NCI-H460; first compound 4 µM): 0.0347 | relative viability (NCI-H522; first compound 0.04 µM): 0.737 | relative viability (NCI-H522; first compound 0.1265 µM): 0.749 | relative viability (NCI-H522; first compound 0.4 µM): 0.724 | relative viability (NCI-H522; first compound 4 µM): 0.816 | relative viability (NCI-H727; first compound 0.04 µM): 0.386 | relative viability (NCI-H727; first compound 0.1265 µM): 0.396 | relative viability (NCI-H727; first compound 0.4 µM): 0.379 | relative viability (NCI-H727; first compound 4 µM): 0.386 | relative viability (SK-LU-1; first compound 0.04 µM): 0.518 | relative viability (SK-LU-1; first compound 0.1265 µM): 0.454 | relative viability (SK-LU-1; first compound 0.4 µM): 0.477 | relative viability (SK-LU-1; first compound 4 µM): 0.447 | relative viability (SW 1573; first compound 0.04 µM): 0.646 | relative viability (SW 1573; first compound 0.1265 µM): 0.564 | relative viability (SW 1573; first compound 0.4 µM): 0.572 | relative viability (SW 1573; first compound 4 µM): 0.627
